Measurements published in publication PMC8162404, “Proteomimetic surface fragments distinguish targets by function” (Chemical Science, 2020).
Where two headings read alike, the source gives them in different places.

What was measured:
S100B = target: T1, S100B (Homo sapiens, UniProt P04271); experiment: Pull-down assay with immobilized protein and LSM libraries; type: binding; details: H12 library; 1:1 binding assumed; read-out: Surface mapping KD (apparent)
T1 construct: made in house; host or cells: Escherichia coli BL21(DE3)
T1 sequence (P04271 1-92): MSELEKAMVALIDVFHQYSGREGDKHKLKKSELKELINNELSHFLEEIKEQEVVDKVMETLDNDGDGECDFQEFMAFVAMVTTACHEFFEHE
Description: (§1) Pull-down assays with immobilized test proteins and foldameric LSM libraries were carried out. Proteins were equilibrated with LSM probes, and equilibrium bound fractions (FB) were determined from the unbound fractions measured by HPLC-MS methods. Hits were corrected with background binding of the resin. The protocol allowed all binding events to equilibrate irrespective of affinity, specificity, and binding kinetics. This was essential to judge overall druggability and promiscuity. Importantly, the concentration of protein and the total concentration of foldameric LSMs were equimolar, which minimized competition between the probes. This experimental setup approximated independent binding of individual library members. Results were visualized as heat maps of dissociation constants (Fig. 3).
(§2) Pull-down assay and data analysis
(§3) Pull-down assay. LSM sublibraries were screened separately as previously described.(2) Experiments were performed in the following buffers: (i) 20 mM pH 7.4 HEPES, 150 mM NaCl, 5 mM CaCl2 for CaM; (ii) 50 mM pH 7.4 HEPES, 150 mM NaCl, 1 mM TCEP, 1 mM CaCl2 for S100 proteins; (iii) 20 mM pH 7.4 HEPES, 150 mM NaCl, 1 mM TCEP for Gal-1 and (iv) 20 mM pH 7.4 HEPES, 150 mM NaCl for RecQ-WH. Assays were performed in paper filter spin cups (Thermo Scientific) with sample volumes of 100 µl. Hexahistidine-tagged proteins were immobilized on previously washed Co-NTA resin (TALON, Takara Bio USA, Inc., Mountain View, CA) in 64 µM final concentration. LSM sublibrary was added, in which each of the 64 library members were used at a concentration of 1 µM. Samples were incubated at room temperature for 30 min with shaking at 100 rpm. Then, samples were centrifuged at 1000 rpm for 2 min and washed with 100 µl pull-down buffer to remove unbound compounds.
(§4) The control experiments were performed using the same compounds and the resin but without the immobilized protein. In case of competitive assays, competitor peptides were added to LSM sublibrary samples in 200 µM final concentration. In the case of Gal-1, lactose (competitor) was used in a concentration of 10 mM. Experiments were performed at least twice. Mean […]
(§5) LC-MS methods and parameters. HPLC/ESI-MS analysis was used to characterize the samples from the pull-down assay. LC-MS analysis was performed with a Thermo Scientific Dionex UltiMate 3000 HPLC system interfaced to an LTQ ion trap mass spectrometer (Thermo Electron Corp., San Jose, CA, USA). Samples were injected onto an Aeris Widepore XB-C18 (250 x 4.6 mm) analytical HPLC column using gradient elution 5-80 % solution B during 25 minutes. For pull-down samples, eluent composition was 0.1% acetic acid in distilled water (Solution A) and 0.1% acetic acid in acetonitrile (solution B). Mass spectra were acquired in full scan mode from 200 to 2000 m/z range. For overlapping peaks, selective reaction monitoring (SRM) was […]
(§6) MS data analysis. Thermo Xcalibur 2.2 software was used for peak identification and integration. The majority of the foldameric fragments could be resolved independently via HPLC-MS/MS measurements based on molecular weight, MS fragmentation pattern and retention time. Peaks of some foldamers with β3-hIle or β3-hLeu in position R2 could not be resolved, these were integrated and averaged. In the processing method, each sample component was associated to a chromatographic peak based on previously identified mass (m/z) and retention time (ref (2) and Table S7-10). Using ICIS peak detection algorithm, the general detection and integration criteria were: smoothing points: 5, baseline window: 80, area noise factor: 5, peak noise factor: 10. Using these processing setups, all raw data files were reprocessed together and analyzed. Errors in peak identification during the automatic processing were corrected manually.
(§7) Calculation of the discussed parameters
(§8) 1. Bound fractions (FB.) were calculated from the HPLC-MS intensity loss of the LSM probes compared to the control where no protein was immobilized to the resin: […]

Gal-1 = target: T2, Gal-1 (Homo sapiens, UniProt P09382); experiment: as above; type: binding; details: 1:1 binding assumed, read-out: Surface mapping KD (apparent)
T2 construct: made in house; host or cells: E. coli BL21(DE3)
T2 sequence (P09382 whole entry): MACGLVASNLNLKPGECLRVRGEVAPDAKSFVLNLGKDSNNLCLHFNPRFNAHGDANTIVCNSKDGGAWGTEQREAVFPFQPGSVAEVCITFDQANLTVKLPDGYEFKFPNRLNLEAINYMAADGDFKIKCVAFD
Description: as §1, §2, §3, §4, §5, §6, §7, §8

| Kd (S100B) [µM] | Kd (Gal-1; H12 library) [µM] | Structure (SMILES) | also measured |
| --- | --- | --- | --- |
| 219 | – | C[C@@H](CC(=O)N[C@H]1CCC[C@@H]1C(=O)N[C@H]1CCC[C@@H]1C(=O)N[C@@H](CCCNC(=N)N)CC(=O)N[C@H]1CCC[C@@H]1C(=O)N[C@H]1CCC[C@@H]1C(N)=O)NC(=O)[C@H]1CCC[C@@H]1NC(=O)[C@H]1CCC[C@@H]1N [H12 AR] | – |
| 87 | – | CC[C@H](C)[C@@H](CC(=O)N[C@H]1CCC[C@@H]1C(=O)N[C@H]1CCC[C@@H]1C(=O)N[C@@H](CCCCN)CC(=O)N[C@H]1CCC[C@@H]1C(=O)N[C@H]1CCC[C@@H]1C(N)=O)NC(=O)[C@H]1CCC[C@@H]1NC(=O)[C@H]1CCC[C@@H]1N [H12 IK] | – |
| 216 | – | CC[C@H](C)[C@@H](CC(=O)N[C@H]1CCC[C@@H]1C(=O)N[C@H]1CCC[C@@H]1C(=O)N[C@H](CC(=O)N[C@H]1CCC[C@@H]1C(=O)N[C@H]1CCC[C@@H]1C(N)=O)[C@@H](C)O)NC(=O)[C@H]1CCC[C@@H]1NC(=O)[C@H]1CCC[C@@H]1N [H12 IT] | – |
| 243 | – | C[C@@H](CC(=O)N[C@H]1CCC[C@@H]1C(=O)N[C@H]1CCC[C@@H]1C(N)=O)NC(=O)[C@H]1CCC[C@@H]1NC(=O)[C@H]1CCC[C@@H]1NC(=O)C[C@H](CCCCN)NC(=O)[C@H]1CCC[C@@H]1NC(=O)[C@H]1CCC[C@@H]1N [H12 KA] | – |
| – | 212 | NCCCC[C@@H](CC(=O)N[C@H]1CCC[C@@H]1C(=O)N[C@H]1CCC[C@@H]1C(=O)N[C@@H](CCC(=O)O)CC(=O)N[C@H]1CCC[C@@H]1C(=O)N[C@H]1CCC[C@@H]1C(N)=O)NC(=O)[C@H]1CCC[C@@H]1NC(=O)[C@H]1CCC[C@@H]1N [H12 KE] | – |
| 274 | – | NCCCC[C@@H](CC(=O)N[C@H]1CCC[C@@H]1C(=O)N[C@H]1CCC[C@@H]1C(=O)N[C@@H](CC(N)=O)CC(=O)N[C@H]1CCC[C@@H]1C(=O)N[C@H]1CCC[C@@H]1C(N)=O)NC(=O)[C@H]1CCC[C@@H]1NC(=O)[C@H]1CCC[C@@H]1N [H12 KN] | – |
| 226 | – | C[C@@H](O)[C@@H](CC(=O)N[C@H]1CCC[C@@H]1C(=O)N[C@H]1CCC[C@@H]1C(N)=O)NC(=O)[C@H]1CCC[C@@H]1NC(=O)[C@H]1CCC[C@@H]1NC(=O)C[C@H](CCCCN)NC(=O)[C@H]1CCC[C@@H]1NC(=O)[C@H]1CCC[C@@H]1N [H12 KT] | – |
| – | 470 | CC(C)C[C@@H](CC(=O)N[C@H]1CCC[C@@H]1C(=O)N[C@H]1CCC[C@@H]1C(=O)N[C@@H](CC(=O)O)CC(=O)N[C@H]1CCC[C@@H]1C(=O)N[C@H]1CCC[C@@H]1C(N)=O)NC(=O)[C@H]1CCC[C@@H]1NC(=O)[C@H]1CCC[C@@H]1N [H12 LD] | – |
| – | 335 | CC(C)C[C@@H](CC(=O)N[C@H]1CCC[C@@H]1C(=O)N[C@H]1CCC[C@@H]1C(=O)N[C@@H](CCC(=O)O)CC(=O)N[C@H]1CCC[C@@H]1C(=O)N[C@H]1CCC[C@@H]1C(N)=O)NC(=O)[C@H]1CCC[C@@H]1NC(=O)[C@H]1CCC[C@@H]1N [H12 LE] | – |
| 258 | – | CC(C)C[C@@H](CC(=O)N[C@H]1CCC[C@@H]1C(=O)N[C@H]1CCC[C@@H]1C(=O)N[C@@H](CO)CC(=O)N[C@H]1CCC[C@@H]1C(=O)N[C@H]1CCC[C@@H]1C(N)=O)NC(=O)[C@H]1CCC[C@@H]1NC(=O)[C@H]1CCC[C@@H]1N [H12 LS] | – |
| 216 | – | CC(C)C[C@@H](CC(=O)N[C@H]1CCC[C@@H]1C(=O)N[C@H]1CCC[C@@H]1C(=O)N[C@H](CC(=O)N[C@H]1CCC[C@@H]1C(=O)N[C@H]1CCC[C@@H]1C(N)=O)[C@@H](C)O)NC(=O)[C@H]1CCC[C@@H]1NC(=O)[C@H]1CCC[C@@H]1N [H12 LT] | – |
| – | 430 | NCCCC[C@@H](CC(=O)N[C@H]1CCC[C@@H]1C(=O)N[C@H]1CCC[C@@H]1C(N)=O)NC(=O)[C@H]1CCC[C@@H]1NC(=O)[C@H]1CCC[C@@H]1NC(=O)C[C@H](CC(N)=O)NC(=O)[C@H]1CCC[C@@H]1NC(=O)[C@H]1CCC[C@@H]1N [H12 NK] | – |
| – | 250 | N=C(N)NCCC[C@@H](CC(=O)N[C@H]1CCC[C@@H]1C(=O)N[C@H]1CCC[C@@H]1C(=O)N[C@@H](CC(=O)O)CC(=O)N[C@H]1CCC[C@@H]1C(=O)N[C@H]1CCC[C@@H]1C(N)=O)NC(=O)[C@H]1CCC[C@@H]1NC(=O)[C@H]1CCC[C@@H]1N [H12 RD] | – |
| 217 | – | N=C(N)NCCC[C@@H](CC(=O)N[C@H]1CCC[C@@H]1C(=O)N[C@H]1CCC[C@@H]1C(=O)N[C@@H](CC(N)=O)CC(=O)N[C@H]1CCC[C@@H]1C(=O)N[C@H]1CCC[C@@H]1C(N)=O)NC(=O)[C@H]1CCC[C@@H]1NC(=O)[C@H]1CCC[C@@H]1N [H12 RN] | – |
| 210 | – | N=C(N)NCCC[C@@H](CC(=O)N[C@H]1CCC[C@@H]1C(=O)N[C@H]1CCC[C@@H]1C(=O)N[C@@H](CCC(N)=O)CC(=O)N[C@H]1CCC[C@@H]1C(=O)N[C@H]1CCC[C@@H]1C(N)=O)NC(=O)[C@H]1CCC[C@@H]1NC(=O)[C@H]1CCC[C@@H]1N [H12 RQ] | – |
| – | 242 | N=C(N)NCCC[C@@H](CC(=O)N[C@H]1CCC[C@@H]1C(=O)N[C@H]1CCC[C@@H]1C(=O)N[C@@H](CO)CC(=O)N[C@H]1CCC[C@@H]1C(=O)N[C@H]1CCC[C@@H]1C(N)=O)NC(=O)[C@H]1CCC[C@@H]1NC(=O)[C@H]1CCC[C@@H]1N [H12 RS] | – |
| 401 | – | NCCCC[C@@H](CC(=O)N[C@H]1CCC[C@@H]1C(=O)N[C@H]1CCC[C@@H]1C(N)=O)NC(=O)[C@H]1CCC[C@@H]1NC(=O)[C@H]1CCC[C@@H]1NC(=O)C[C@H](CO)NC(=O)[C@H]1CCC[C@@H]1NC(=O)[C@H]1CCC[C@@H]1N [H12 SK] | – |
| – | 480 | CC(C)[C@@H](CC(=O)N[C@H]1CCC[C@@H]1C(=O)N[C@H]1CCC[C@@H]1C(=O)N[C@@H](CC(=O)O)CC(=O)N[C@H]1CCC[C@@H]1C(=O)N[C@H]1CCC[C@@H]1C(N)=O)NC(=O)[C@H]1CCC[C@@H]1NC(=O)[C@H]1CCC[C@@H]1N [H12 VD] | – |
| – | 469 | CC(C)[C@@H](CC(=O)N[C@H]1CCC[C@@H]1C(=O)N[C@H]1CCC[C@@H]1C(=O)N[C@@H](CCC(=O)O)CC(=O)N[C@H]1CCC[C@@H]1C(=O)N[C@H]1CCC[C@@H]1C(N)=O)NC(=O)[C@H]1CCC[C@@H]1NC(=O)[C@H]1CCC[C@@H]1N [H12 VE] | – |
| – | 497 | CC(C)[C@@H](CC(=O)N[C@H]1CCC[C@@H]1C(=O)N[C@H]1CCC[C@@H]1C(=O)N[C@@H](CC(N)=O)CC(=O)N[C@H]1CCC[C@@H]1C(=O)N[C@H]1CCC[C@@H]1C(N)=O)NC(=O)[C@H]1CCC[C@@H]1NC(=O)[C@H]1CCC[C@@H]1N [H12 VN] | – |
| – | 408 | CC(C)[C@@H](CC(=O)N[C@H]1CCC[C@@H]1C(=O)N[C@H]1CCC[C@@H]1C(=O)N[C@@H](CO)CC(=O)N[C@H]1CCC[C@@H]1C(=O)N[C@H]1CCC[C@@H]1C(N)=O)NC(=O)[C@H]1CCC[C@@H]1NC(=O)[C@H]1CCC[C@@H]1N [H12 VS] | – |
| – | 432 | CC(C)[C@@H](CC(=O)N[C@H]1CCC[C@@H]1C(=O)N[C@H]1CCC[C@@H]1C(=O)N[C@H](CC(=O)N[C@H]1CCC[C@@H]1C(=O)N[C@H]1CCC[C@@H]1C(N)=O)[C@@H](C)O)NC(=O)[C@H]1CCC[C@@H]1NC(=O)[C@H]1CCC[C@@H]1N [H12 VT] | – |
| – | – | C[C@@H](CC(=O)N[C@H]1CCCC[C@@H]1C(=O)N[C@H]1CCCC[C@@H]1C(=O)N[C@@H](CC(=O)O)CC(=O)N[C@H]1CCCC[C@@H]1C(N)=O)NC(=O)[C@H]1CCCC[C@@H]1N [H14 AD] | Kd (Gal-1; H14 library): 168 µM |
| – | – | C[C@@H](CC(=O)N[C@H]1CCCC[C@@H]1C(=O)N[C@H]1CCCC[C@@H]1C(=O)N[C@@H](CC(N)=O)CC(=O)N[C@H]1CCCC[C@@H]1C(N)=O)NC(=O)[C@H]1CCCC[C@@H]1N [H14 AN] | Kd (Gal-1; H14 library): 303 µM |
| – | – | CSCC[C@@H](CC(=O)N[C@H]1CCCC[C@@H]1C(=O)N[C@H]1CCCC[C@@H]1C(=O)N[C@@H](CCC(=O)O)CC(=O)N[C@H]1CCCC[C@@H]1C(N)=O)NC(=O)[C@H]1CCCC[C@@H]1N [H14 ME] | Kd (Gal-1; H14 library): 250 µM |
